Source: PMC11554305, “Functional identification of soluble uric acid as an endogenous inhibitor of CD38” (eLife, 2024)
Like-named read-outs stand apart in the source and are kept apart here.

Legend:
[1] = Solubility and crystal precipitation in solution; assay type: physicochemical
Experimental: (§1) Guanosine was dissolved in DMSO and diluted in the reaction buffer for subsequent assays.
MSU crystals were prepared by the recrystallization of oversaturated sUA according to a previous report ([Martinon et al., 2006]). Improper preparation of sUA solution may introduce crystals to cause false-positive or false-negative results. […] In this study, the sUA solution was prepared according to an improved protocol ([Ma et al., 2020]). […] Then, sUA solution was immediately filtered by 0.2 μm filters and diluted to experimental concentration (up to 10 mg/dL, 595 μM) for cell experiments. […]

CD38 = assay: Hydrolase and cyclase activities of human and murine CD38; assay type: biochemical; conditions: for Effect on CD38 activity: analogs and fragments, 5 to 500 μM, recombinant hCD38, THP-1 cells, WT lung tissues, Figure 2D, E; for Effect on hydrolase and cyclase activities of human and murine CD38: sUA precursors and metabolite, above physiological levels, Figure 2B, C and supplement 1A–C
Experimental: The hydrolase activity of CD38 was measured according to a previous report ([de Oliveira et al., 2018]) with minor modifications. CD38 hydrolase activity was measured using 50 μM ε-NAD^+ as a substrate in hydrolase reaction buffer (250 mM sucrose, 40 mM Tris-HCl, pH 7.4). Briefly, cells or tissues were directly homogenized in blank reaction buffer on ice, and recombinant hCD38 was diluted in blank reaction buffer for subsequent assays. The tissue homogenates were centrifuged to collect the supernatant for enzyme assays. The loading volume of enzyme was 4–30 μL, the total volume of the reaction system was 3 mL. To detect enzyme inhibition, except when specified, the ligands were directly dissolved in hydrolase reaction buffer before pH adjustment, after which, the pH was immediately adjusted to 7.4. All reaction buffers, with or without ligands, were freshly prepared before each assay. For measurement of hydrolase activity, 3 mL reaction buffer containing enzyme, ε-NAD^+, and ligands at indicated concentrations was maintained at 37°C with constant stirring.
The cyclase activity of CD38 was measured as previously described ([Higashida et al., 1999]; [Jin et al., 2007]). CD38 cyclase activity was measured using 60 μM NGD as a substrate in cyclase reaction buffer (100 mM KCl, 10 μM CaCl2, and 50 mM Tris-HCl, pH 6.6). Tissues were cut into pieces and suspended in the buffer (5 mM MgCl2, 10 mM Tris-HCl, pH 7.3) at 4°C for 30 min. Then, the suspension was homogenized on ice, and the supernatant was collected after centrifugation. To collect the crude membrane fractions, the supernatant was centrifuged at 105,000×g for 30 min. The final pellet was resuspended in 10 mM Tris-HCl solution (pH 6.6) for cyclase assay. Homogenates of THP-1 or A549 cells, and recombinant hCD38 were used directly for cyclase assays. The loading volume of enzyme was 4–20 μL, the total volume of reaction system was 3 mL. To detect enzyme inhibition, except when specified, the ligands were directly dissolved in cyclase reaction buffer before pH adjustment, after which, the pH was immediately adjusted to 6.6. All reaction buffers, with or without ligands, were freshly prepared before each assay. For measurement of cyclase activity, 3 mL reaction buffer containing enzyme, NGD, and ligands at indicated concentrations was maintained at 37°C with constant stirring.
The reaction buffer for hydrolase or cyclase assays was excited at 300 nm, and fluorescence emission was measured every second at 410 nm by Shimazu RF-6000 spectrofluorometer. Hydrolase or cyclase activity was calculated from the linear portion of the time course by fitting a linear function to the data points recorded within 5 min.
as §1
For reversibility test, recombinant hCD38 was pre-incubated for 30 min in four conditions: (1) control reaction buffer; (2) in the presence of 100 μM substrate (ε-NAD^+ or NGD); (3) 500 μM sUA; (4) both substrate and sUA. Subsequently, the enzyme was diluted 100-fold in reaction buffer in the presence or absence of 500 μM sUA for activity assays using ε-NAD^+ or NGD. Naïve THP-1 and A549 cells were incubated with RPMI-1640 medium in the presence or absence of 500 μM sUA for 2 hr. The cells were collected and homogenized in the reaction buffer on ice with or without 500 μM sUA, samples were then diluted 100-fold in reaction buffer with or without 500 μM sUA for enzyme assay. Control group was not treated with sUA in all steps; sUA group was treated with sUA in each step; sUA release group was treated with sUA prior to dilution in sUA-free buffer for enzyme assays.

Compound: 8-oxoguanine [8-OG, reference compound]
- Solubility in reaction buffer [1]: limited solubility

Compound: O=c1[nH]cc[nH]1 [1,3-DHI-2-one, 1,3-dihydroimidazol-2-one]
- Effect on CD38 activity (CD38): did not affect CD38 activity

Compound: Nc1ncnc2c1ncn2[C@@H]1O[C@H](CO)[C@@H](O)[C@H]1O [Adenosine, adenosine]
- Effect on hydrolase and cyclase activities of human and murine CD38 (CD38): hardly inhibited

Compound: NC(=O)NC1NC(=O)NC1=O (stereo not drawn) [Allantoin, allantoin]
- Effect on hydrolase and cyclase activities of human and murine CD38 (CD38): hardly inhibited

Compound: Nc1nc2c(ncn2[C@@H]2O[C@H](CO)[C@@H](O)[C@H]2O)c(=O)[nH]1 [Guanosine, guanosine, reference compound]
- Solubility in reaction buffer ([1]; tested only at 50 μM): limited solubility
- Effect on hydrolase and cyclase activities of human and murine CD38 (CD38): hardly inhibited

Compound: O=c1[nH]cnc2nc[nH]c12 [Hypoxanthine, hypoxanthine]
- Effect on hydrolase and cyclase activities of human and murine CD38 (CD38): hardly inhibited

Compound: O=c1cc[nH]c(=O)[nH]1 [Uracil, uracil]
- Effect on CD38 activity (CD38): did not affect CD38 activity

Compound: O=c1[nH]c(=O)c2nc[nH]c2[nH]1 [Xanthine, xanthine]
- Effect on hydrolase and cyclase activities of human and murine CD38 (CD38): hardly inhibited
